# Measurements reported in patent publication EP0706514B1, “COMPOUNDS AND METHODS FOR INHIBITION OF HIV AND RELATED VIRUSES” (MEDIVIR AB, priority 1993, dated 1995).
# Values joined by “and” are separate entries in the source; they are usually repeats but may differ in a detail not shown here. Equal entries are not always repeated. Where two headings read alike, the source gives them in different places.
# Key:
# recombinant HIV-RT = target: T1, recombinant HIV-RT (Human immunodeficiency virus type 1 group M subtype B, UniProt P04585); assay: biochemical
# T1 construct: recombinant HIV-RT (diluted in virus disruption buffer to give 200.000 cpm)
# Procedure: 100 mM Tris-HCl pH 7.6, 100 mM KCl, 4 mM MgCl2, 4 mM DTT, 275 mg/ml BSA, 0.5 mg (rA)n(dT)12-18 and 0.3 mM ^3H-=dTTP (specific activity 18.000 cpm/mol). After 60 minutess of incubation 40 ml in duplicate were spotted on paper discs and washed in 5% TCA. After rinsing the paper discs in ethanol they were dried and counted in scintillation fluid.
# HIV virus = assay: Test A (XTT): reduction of virus-induced cytotoxicity in MT4 cells; format: cell-based; settings: for % inhibition: Test A
# Procedure: Tests A, B, C, and D (XTT)
# MT4 cells in a medium of RPMI 1640, 5% FCS, penicillin/streptomycin are adjusted to 2x10^5 cells/ml and seeded into microplates (96 wells/plate) […] cell suspension/well giving 2x10^4 cells/well. The compound to be tested is made into a 10 mg/ml mixture in DMSO and stored at -20°C. […] Further dilutions to […] are made in medium containing microplates. Fifty […] of the 400, 40, and 4 mg/ml are transferred to the cell-containing microplates with a multi-channel pipette (final concentration: […]). Finally, […] of virus suspension is added to each well (with a repetitive "Eppendorf" multipipett). […] The plate is put into a plastic bag and incubated for six days in CO2 atmosphere. To each well in the plate is added […] of XTT ((2,3-bis[2-methoxy-4-nitro-5-sulfophenyl]-5-[(phenylamin o)carbonyl]-2H-tetrazolium hydroxide), (1 mg/ml 0.01-0.02 mM N-metyl-phenazonium methosulfate). After six hours of incubation in CO2 atmosphere the plates are covered with adhesive plate sealers and gently mixed on a vortex. Optical densities are determined at a wavelength of 450 nm and a reference wavelength of 650 nm. The percent reduction of cytotoxocity caused by the virus infection is calculated as follows: (OD450 compound - OD450 inf cells)/(OD450 uninf cells - OD450 inf cells)x 100 [formula]
# [1] = Test I, several values in a cell are repeat determinations, read-out: IC50 (converted)
# [2] = IC50, Test I, several values in a cell are repeat determinations
# [3] = Human immunodeficiency virus 1, MT4
# [4] = Human immunodeficiency virus 1, MT4, Test A, MT4 cells, 0.1 µg/ml, read-out: % inhibition
# [5] = Human immunodeficiency virus 1, MT4, Test A, MT4 cells, 1 µg/ml
# [6] = Human immunodeficiency virus 1, MT4, Test A, MT4 cells, 100 µg/ml, read-out: % inhibition
structure (smiles),measurement,setting,value
"O=C(Nc1ccc(Br)cn1)NC1CC1c1c(F)cccc1F [Example 27, (1R,2S)-N-(cis-2-(2,6-Difluorophenyl)-cyclopropyl)-N'-5-bromopyrid-2-yl)-urea]",IC50,recombinant HIV-RT; [1],1.36 nM and 1.63 nM
"O=C(Nc1ccc(Cl)cn1)N[C@@H]1C[C@@H]1c1c(F)ccc(O)c1Cl (racemic) [Example 64, (+, -)-N-(cis-2-(2-chloro-3-hydroxy-6-fluorophenyl)cyclopropyl)-N'-(5-chloropyrid-2-yl)-urea]",IC50,recombinant HIV-RT; [2],3.65 nM
O=C(Nc1ccc(Cl)cn1)N[C@H]1C[C@H]1c1c(F)cccc1F,IC50,"recombinant HIV-RT; IC50, Test I",2.47 nM and 1.54 nM
same,% inhibition,"recombinant HIV-RT; Test I, 0.001 µg/ml",62%
same,inhibition at 0.001 µg/mL,"recombinant HIV-RT; Test I, 0.001 µg/ml",55%
same,% inhibition,"recombinant HIV-RT; Test I, 0.01 µg/ml",93%
same,inhibition at 0.01 µg/mL,"recombinant HIV-RT; Test I, 0.01 µg/ml",89%
same,inhibition at 0.1 µg/mL,"recombinant HIV-RT; Test I, 0.1 µg/ml (column 4)",98%
same,inhibition at 1 µg/mL,"recombinant HIV-RT; Test I, 1 µg/ml",100%
same,inhibition at 0.1 µg/mL,HIV virus; [3],100%
same,inhibition at 10 µg/mL,HIV virus; [3],100%
same,inhibition at 100 µg/mL,HIV virus; [3],100%
same,inhibition at 0.001 µg/mL,"HIV virus; Human immunodeficiency virus 1, MT4, Test A, MT4 cells, 0.001 µg/ml",7%
same,inhibition at 0.01 µg/mL,"HIV virus; Human immunodeficiency virus 1, MT4, Test A, MT4 cells, 0.01 µg/ml",80%
same,inhibition at 0.1 µg/mL,HIV virus; [4],82%
same,inhibition at 1 µg/mL,HIV virus; [5],86%
same,inhibition at 100 µg/mL,HIV virus; [6],3%
same,% inhibition,"HIV virus; MT4 cells, 0.001 µg/ml",8%
same,% inhibition,"HIV virus; MT4 cells, 0.01 µg/ml",81%
same,% inhibition,"HIV virus; MT4 cells, 1 µg/ml",90%
CC(=O)c1ccc(F)c(CCNC(=O)Nc2ccc(Cl)cn2)c1O [Example 58],IC50,recombinant HIV-RT; [1],108 nM
CCOc1ccc(F)c(CCNC(=O)Nc2ccc(Br)cn2)c1Cl,IC50,"recombinant HIV-RT; IC50, Test I",4.8 nM and 3.36 nM
same,% inhibition,"recombinant HIV-RT; Test I, 0.001 µg/ml",45%
same,inhibition at 0.001 µg/mL,"recombinant HIV-RT; Test I, 0.001 µg/ml",41%
"N#Cc1ccc(NC(=O)N[C@@H]2C[C@@H]2c2c(F)cccc2F)nc1 (racemic) [Example 26, (+,-)-N-(cis-2-(2,6-Difluorophenyl)-cyclopropyl)-N'-(5-cyanopyrid-2-yl)-urea]",IC50,recombinant HIV-RT; [2],28.6 nM and 31.8 nM
O=C(NCCc1c(F)cccc1F)Nc1ccc(Cl)cn1,inhibition at 0.1 µg/mL,HIV virus; [4],92%
same,inhibition at 1 µg/mL,HIV virus; [5],87%
same,inhibition at 10 µg/mL,"HIV virus; Human immunodeficiency virus 1, MT4, Test A, MT4 cells, 10 µg/ml, read-out: % inhibition",93%
same,inhibition at 100 µg/mL,HIV virus; [6],0%
same,% inhibition,"HIV virus; MT4 cells, 0.001 µg/ml",6%
same,% inhibition,"HIV virus; MT4 cells, 0.01 µg/ml",51% and 94%
same,% inhibition,"HIV virus; MT4 cells, 1 µg/ml",98%
"O=C(Nc1ccc(Cl)cn1)N[C@@H]1C[C@@H]1c1c(F)cccc1Cl (relative stereo) [Example 34, N-(cis-2-(2-chloro-6-fluorophenyl)-cyclopropyl) -N'-(5-chloropyrid-2-yl)-urea]",IC50,recombinant HIV-RT; [2],1.18 nM
"COCOc1c(C(C)=O)ccc(F)c1[C@H]1C[C@H]1NC(=O)Nc1ccc(Cl)cn1 (racemic) [Example 56, (+,-)-N-(cis-2-(5-Acetyl-2-fluoro-6-methoxymethoxyphenyl)cyclopropyl)-N'-(5-chloropyrid-2-yl)-urea]",IC50,recombinant HIV-RT; [2],5.64 nM and 5.39 nM
"CC(=O)c1ccc(F)c([C@H]2C[C@H]2NC(=O)Nc2ccc(Cl)cn2)c1O (racemic) [Example 57, (+,-)-N-(cis-2-(5-Acetyl-2-fluoro-6-hydroxyphenyl)cyclopropyl)-N'-(5-chloropyrid-2-yl)-urea]",IC50,recombinant HIV-RT; [2],1.1 nM (2×) and 1.37 nM
"N#Cc1ccc(NC(=O)N[C@@H]2C[C@@H]2c2c(F)cccc2Cl)nc1 (relative stereo) [Example 33, N-(cis-2-(2-chloro-6-fluorophenyl)cyclopropyl)-N'-(5-cyanopyrid-2-yl)-urea]",IC50,recombinant HIV-RT; [2],1.51 nM
